The test deals with T1, FXR ligand binding domain (Homo sapiens, UniProt Q96RI1).
T1 construct: made in house; host or cells: E. coli BL21 (pLysS)
T1 sequence (Q96RI1 193-472 isoform Q96RI1-2): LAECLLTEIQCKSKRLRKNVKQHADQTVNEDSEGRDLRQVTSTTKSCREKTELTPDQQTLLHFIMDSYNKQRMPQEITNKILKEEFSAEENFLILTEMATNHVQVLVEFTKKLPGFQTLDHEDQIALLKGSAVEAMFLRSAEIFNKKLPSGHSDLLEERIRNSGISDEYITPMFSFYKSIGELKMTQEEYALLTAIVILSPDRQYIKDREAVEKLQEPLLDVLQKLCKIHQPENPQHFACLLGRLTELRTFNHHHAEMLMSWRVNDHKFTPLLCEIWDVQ
The test can be described thus: Radioligand Binding Assay (scintillation proximity radioligand displacement). The settings on record: GST-FXR LBD fusion protein on SPA beads, test compound 6×10^−9 M to 2.5×10^−5 M. On the procedure: The following tests were carried out in order to determine the activity of the compounds of formula (I). Background information on the binding assay can be found in: Nichols J S et al. “Development of a scintillation proximity assay for peroxisome proliferator-activated receptor gamma ligand binding domain”, (1998) Anal. Biochem. 257: 112-119.
Bacterial and mammalian expression vectors were constructed to produce glutathione-s-transferase (GST) and Gal4 DNA binding domain (GAL) proteins fused to the ligand binding domain (LBD) of human FXR (aa 193-473). To accomplish this, the portions of the sequences encoding the FXR LBD were amplified by polymerase chain reaction (PCR) from a full-length clone by PCR and then subcloned into the plasmid vectors. The final clone was verified by DNA sequence analysis.
The induction, expression, and subsequent purification of GST-LBD fusion protein was performed in E. coli strain BL21 (pLysS) cells by standard methods (Current Protocols in Molecular Biology, Wiley Press, ed. Ausubel et al.).
Radioligand Binding Assay
Binding of test substances to the FXR ligand binding domain was assessed in a radioligand displacement assay. The assay was performed in a buffer consisting of 50 mM Hepes, pH 7.4, 10 mM NaCl, 5 mM MgCl2, 0.01% CHAPS. For each reaction well in a 96-well plate, 40 nM of GST-FXR LBD fusion protein was bound to […] glutathione ytrium silicate SPA beads (PharmaciaAmersham) in a final volume of […] by shaking. A radioligand (e.g., 20 nM of 2,N-dicyclohexyl-2-[2-(2,4 dimethoxy-phenyl)-benzoimidazol-1-yl]-acetamide) and test compounds were added, and scintillation proximity counting was performed. All binding assays were performed in 96-well plates and the amount of bound ligand was measured on a Packard TopCount using OptiPlates (Packard). Dose response curves were performed within a range of test compound concentrations from 6×10^−9 M to 2.5×10^−5 M and IC50 values were calculated.

SMILES strings stand for the structures.

Turning to `Fc1cc2nc(-c3ccc(Cl)cc3OCc3ccccc3Cl)n(Cc3cccc(Cl)c3)c2cc1F` [Example 53, 1-(3-Chloro-benzyl)-2-[4-chloro-2-(2-chloro-benzyloxy)-phenyl]-5,6-difluoro-1H-benzoimidazole], the IC50 – broadly, the concentration needed to halve the response being measured – stood at 1700 nM. For `Fc1cc2nc(-c3ccc(Cl)cc3OCC3CCCC3)n(Cc3cccc(Cl)c3)c2cc1F` [Example 54, 1-(3-Chloro-benzyl)-2-(4-chloro-2-cyclopentylmethoxy-phenyl)-5,6-difluoro-1H-benzoimidazole], the IC50 amounted to 1200 nM. `Fc1cc2nc(-c3ccc(Cl)cc3OCC3CC3)n(Cc3cccc(Cl)c3)c2cc1F` [Example 55, 1-(3-Chloro-benzyl)-2-(4-chloro-2-cyclopropylmethoxy-phenyl)-5,6-difluoro-1H-benzoimidazole] yielded an IC50 of 2600 nM. Compound `O=C(O)c1ccc(COc2cc(Cl)ccc2-c2nc3cc(F)c(F)cc3n2Cc2cccc(Cl)c2)cc1` [Example 56, 4-{5-Chloro-2-[1-(3-chloro-benzyl)-5,6-difluoro-1H-benzoimidazol-2-yl]-phenoxymethyl}-benzoic acid] gave an IC50 of 500 nM. `O=C(O)COc1ccc(COc2cc(Cl)ccc2-c2nc3cc(F)c(F)cc3n2Cc2cccc(Cl)c2)cc1` [Example 57, (4-{5-Chloro-2-[1-(3-chloro-benzyl)-5,6-difluoro-1H-benzoimidazol-2-yl]-phenoxymethyl}-phenoxy)-acetic acid] had an IC50 of 200 nM. Under `O=C(O)CCc1ccc(Cn2c(-c3ccc(Cl)cc3OCc3ccccc3Cl)nc3cc(F)c(F)cc32)cc1` [Example 58, 3-(4-{2-[4-Chloro-2-(2-chloro-benzyloxy)-phenyl]-5,6-difluoro-benzoimidazol-1-ylmethyl}-phenyl)-propionic acid] stands 30 nM. Under `O=C(O)CCc1ccc(Cn2c(-c3ccc(Cl)cc3OCC3CCCC3)nc3cc(F)c(F)cc32)cc1` [Example 59, 3-{4-[2-(4-Chloro-2-cyclopentylmethoxy-phenyl)-5,6-difluoro-benzoimidazol-1-ylmethyl]-phenyl}-propionic acid] stands 300 nM. `O=C(O)CCc1ccc(Cn2c(-c3ccc(Cl)cc3OCC3CC3)nc3cc(F)c(F)cc32)cc1` [Example 60, 3-{4-[2-(4-Chloro-2-cyclopropylmethoxy-phenyl)-5,6-difluoro-benzoimidazol-1-ylmethyl]-phenyl}-propionic acid] displayed an IC50 of 1300 nM. `O=C(O)c1cccc(Cn2c(-c3ccc(Cl)cc3OCC3CCCC3)nc3cc(F)c(F)cc32)c1` [Example 61, 3-[2-(4-Chloro-2-cyclopentylmethoxy-phenyl)-5,6-difluoro-benzoimidazol-1-ylmethyl]-benzoic acid] gave an IC50 of 500 nM.

The compound `O=C(O)c1ccc(Cn2c(-c3ccc(Cl)cc3OCC3CCCC3)nc3cc(F)c(F)cc32)cc1` [Example 62, 4-[2-(4-Chloro-2-cyclopentylmethoxy-phenyl)-5,6-difluoro-benzoimidazol-1-ylmethyl]-benzoic acid] showed an IC50 of 400 nM.

For the compound `O=C(O)Cc1ccc(Cn2c(-c3ccc(Cl)cc3OCC3CCCC3)nc3cc(F)c(F)cc32)cc1` [Example 63, {4-[2-(4-Chloro-2-cyclopentylmethoxy-phenyl)-5,6-difluoro-benzoimidazol-1-ylmethyl]-phenyl}-acetic acid], the IC50 was 700 nM. The compound `O=C(O)COc1ccc(Cn2c(-c3ccc(Cl)cc3OCC3CCCC3)nc3cc(F)c(F)cc32)cc1` [Example 64, {4-[2-(4-Chloro-2-cyclopentylmethoxy-phenyl)-5,6-difluoro-benzoimidazol-1-ylmethyl]-phenoxy}-acetic acid] registered an IC50 of 200 nM. For `O=C(O)CCCCCn1c(-c2ccc(Cl)cc2OCC2CCCC2)nc2cc(F)c(F)cc21` [Example 65, 6-[2-(4-Chloro-2-cyclopentylmethoxy-phenyl)-5,6-difluoro-benzoimidazol-1-yl]-hexanoic acid], the IC50 turned out to be 3700 nM. Take `O=C(O)C1CCC(Cn2c(-c3ccc(Cl)cc3OCC3CCCC3)nc3cc(F)c(F)cc32)CC1` (stereo not shown) [Example 66, 4-[2-(4-Chloro-2-cyclopentylmethoxy-phenyl)-5,6-difluoro-benzoimidazol-1-ylmethyl]-cyclohexane carboxylic acid]: the IC50 is 1800 nM. Under `Fc1cc2nc(-c3ccc(Cl)cc3OCC3CCCC3)n(Cc3cccc(-c4nnn[nH]4)c3)c2cc1F` [Example 67, 2-(4-Chloro-2-cyclopentylmethoxy-phenyl)-5,6-difluoro-1-[3-(1H-tetrazol-5-yl)-benzyl]-1H-benzoimidazole] stands 90 nM; under `Fc1cc2nc(-c3ccc(Cl)cc3OCC3CCCC3)n(Cc3ccc(-c4nnn[nH]4)cc3)c2cc1F` [Example 68, 2-(4-Chloro-2-cyclopentylmethoxy-phenyl)-5,6-difluoro-1-[4-(1H-tetrazol-5-yl)-benzyl]-1H-benzoimidazole], 40 nM; under `Fc1cc2nc(-c3ccc(Cl)cc3OCC3CCCC3)n(Cc3ccc(-c4nnn[nH]4)c(F)c3)c2cc1F` [Example 69, 2-(4-Chloro-2-cyclopentylmethoxy-phenyl)-5,6-difluoro-1-[3-fluoro-4-(1H-tetrazol-5-yl)-benzyl]-1H-benzoimidazole], 80 nM. Under `Fc1cc2nc(-c3ccc(Cl)cc3OCC3CCCC3)n(Cc3ccc(-c4nnn[nH]4)cc3F)c2cc1F` [Example 70, 2-(4-Chloro-2-cyclopentylmethoxy-phenyl)-5,6-difluoro-1-[2-fluoro-4-(1H-tetrazol-5-yl)-benzyl]-1H-benzoimidazole] stands 10 nM.

Regarding `COc1cc(Cl)ccc1-c1nc2cc(F)c(F)cc2n1Cc1ccc(-c2nnn[nH]2)cc1F` [Example 71, 2-(4-Chloro-2-methoxy-phenyl)-5,6-difluoro-1-[2-fluoro-4-(1H-tetrazol-5-yl)-benzyl]-1H-benzoimidazole], the IC50 came to 1100 nM.

`Fc1cc2nc(-c3ccc(Cl)cc3C#Cc3ccc(-c4nnn[nH]4)cc3)n(CC3CCCCC3)c2cc1F` [Example 72, 2-{4-Chloro-2-[4-(1H-tetrazol-5-yl)-phenylethynyl]-phenyl}-1-cyclohexylmethyl-5,6-difluoro-1H-benzoimidazole]: the IC50 is 3600 nM. Under `Fc1cc2nc(-c3ccc(Cl)cc3CCc3ccc(-c4nnn[nH]4)cc3)n(CC3CCCCC3)c2cc1F` [Example 73, 2-(4-Chloro-2-{2-[4-(1H-tetrazol-5-yl)-phenyl]-ethyl}-phenyl)-1-cyclohexylmethyl-5,6-difluoro-1H-benzoimidazole] stands 10 nM; under `Clc1ccc(-c2nc3ccccc3n2CC2CCCCC2)c(CCc2ccc(-c3nnn[nH]3)cc2)c1` [Example 74, 2-(4-Chloro-2-{2-[4-(1H-tetrazol-5-yl)-phenyl]-ethyl}-phenyl)-1-cyclohexylmethyl-1H-benzoimidazole], 30 nM. `O=C(O)c1ccc(CCc2cc(Cl)ccc2-c2nc3ccccc3n2CC2CCCCC2)cc1` [Example 75, 4-{2-[5-Chloro-2-(1-cyclohexylmethyl-1H-benzoimidazol-2-yl)-phenyl]-ethyl}-benzoic acid] had an IC50 of 30 nM.

The compound `Fc1cc2nc(-c3ccccc3CCc3ccc(-c4nnn[nH]4)cc3)n(CC3CCCCC3)c2cc1F` [Example 76, 1-Cyclohexylmethyl-5,6-difluoro-2-(2-{2-[4-(1H-tetrazol-5-yl)-phenyl]-ethyl}-phenyl)-1H-benzoimidazole] displayed an IC50 of 100 nM.

`O=C(O)c1ccc(CCc2ccccc2-c2nc3cc(F)c(F)cc3n2CC2CCCCC2)cc1` [Example 77, 4-{2-[2-(1-Cyclohexylmethyl-5,6-difluoro-1H-benzoimidazol-2-yl)-phenyl]-ethyl}-benzoic acid] registered an IC50 of 30 nM.

Compound `O=C(O)c1ccc(CCc2ccccc2-c2nc3ccccc3n2CC2CCCCC2)cc1` [Example 78, 4-{2-[2-(1-Cyclohexylmethyl-1H-benzoimidazol-2-yl)-phenyl]-ethyl}-benzoic acid] registered an IC50 of 90 nM.

In turn, `O=C(O)COc1ccc(CCc2ccccc2-c2nc3ccccc3n2CC2CCCCC2)cc1` [Example 79, (4-{2-[2-(1-Cyclohexylmethyl-1H-benzoimidazol-2-yl)-phenyl]-ethyl}-phenoxy)-acetic acid] came in with an IC50 of 80 nM.

With `c1ccc(-c2nc3ccccc3n2CC2CCCCC2)c(CCc2ccc(-c3nnn[nH]3)cc2)c1` [Example 80, 1-Cyclohexylmethyl-2-(2-{2-[4-(1H-tetrazol-5-yl)-phenyl]-ethyl}-phenyl)-1H-benzoimidazole], the IC50 was 30 nM.

These data come from patent US8309581B2, “Benzimidazole derivatives” (Hoffmann-La Roche Inc., priority 2009, dated 2012).
